# Results: US20070232563A1, “Method for Enhancing Biological Activity and/or Expanding Suitable Region for Biological Activity of Living Body Contacting with Aqueous Environment” (Kabushiki Kaisha Hayashibara Seibutsu Kagaku Kenky, priority 2004, published 2007)
# Tests used:
# unpolished rice = assay: Germination of unpolished rice in aqueous mineral solution; type: in vivo
# Protocol: Suitable mineral range of aqueous mineral solutions containing saccharides was examined by using unpolished rice as an agricultural product. In detail, a commercialized purified salt as a mineral was dissolved in tap water to give a final concentration of 0.5, 1.0, 1.5, or 2.0 as described in the following Table 6. α,α-Trehalose or α-maltosyl α,α-trehalose was dissolved in the resulting solutions to give a final concentration of 1 w/v %, on a dry solid basis. Absorbent cotton was allowed to absorb the resulting solution in an appropriate amount and placed in a plastic laboratory dish with a cover. Commercialized unpolished rice grains were placed on the cotton in the dish by 20 grains per group and kept at ambient temperature (25° C.) under a light-shaded condition by covering with a black cloth. As controls, an aqueous mineral solution without saccharides, and water without saccharides and minerals were prepared. […] Effective concentration of α,α-trehalose or α-maltosyl α,α-trehalose on expanding suitable region for biological activity of unpolished rice grains were determined by examining the number of germinated unpolished rice grains and germination time as an index in accordance with the method in Experiment 6 in the aqueous mineral solution with mineral concentration of 1.5 w/v %, where α,α-trehalose or α-maltosyl α,α-trehalose was effective in Experiment 6, containing α,α-trehalose or α-maltosyl α,α-trehalose in a concentration of 0.01, 0.1, 1, 2, 3, 4 or 6 w/v %, on a dry solid basis. As a control, water without saccharides or minerals was used.
# [1] = test system: short-necked clam (Ruditapes philippinarum); assay: Biological activity of short-necked clam (aqueduct extension score) in aqueous mineral solutions; type: in vivo; details: for Judgment score of biological activity: Experiment 2; for Judgment score for biological activity: total of 18 clams, 16 h
# Protocol: Suitable region for biological activity of short-necked clam (Ruditapes philippinarum), as a fish or shellfish living in seawater, was examined by adding various saccharides to mineral aqueous solutions with various concentrations. In detail, solar salt (85% by weight of sodium chloride and 15% by weight of magnesium) as minerals was dissolved in running water kept in a container for two days to give final concentrations described in the following Table 1. Saccharide (any one of D-glucose, maltose, sucrose, maltitol, α,α-trehalose, α-maltosyl α,α-trehalose, maltotetraose and cyclic tetrasaccharide) was dissolved in the resulting salt solutions to give a final concentration of 1 w/v %, on a dry solid basis. Each of the resulting solutions was placed in a plastic bat. Eighteen pre-selected active short-necked clam in one group were placed in the bat. The bat was shaded with a black cloth and left at ambient temperature (18° C.) for 16 hours. As a control, an aqueous solar salt solution without any saccharides was prepared. Saccharides except for α-maltosyl α,α-trehalose as a saccharide derivatives thereof and cyclic tetrasaccharide were chosen from commercialized products. α-Maltosyl α,α-trehalose as saccharide derivatives of α,α-trehalose in a powder form with a purity of 98 w/w % or over was prepared by the method disclosed in Experiment 4 in Japanese Patent Kokai No. 143876/1995. Cyclic tetrasaccharide in a crystalline form with a purity of 98 w/w % or over, on a dry solid basis, was prepared by the method disclosed in Example A-7 in International Patent Publication No. WO02/10361. Influence of various saccharides was judged by observing the degree of extending aqueduct of the shellfish; 3 points: its aqueduct is well extended; 2 points: its aqueduct is slightly extended; 1 point: its aqueduct is not extended but its shells are opened; 0 point: its shells are closed. The effect on biological activity was judged by the total point of 18 shellfishes. To investigate the effective concentration range of α,α-trehalose or α-maltosyl α,α-trehalose against a mineral solution with a concentration of 1.5 w/v % or 4.5 w/v %, where α,α-trehalose or α-maltosyl α,α-trehalose was remarkably effective in Experiment 1, the following experiment using α,α-trehalose or α-maltosyl α,α-trehalose at a concentration of 0.01, 0.1, 1, 2, 3 or 4 w/v % was carried out according to the method in Experiment 1. As a control, mineral aqueous solutions with a concentration of 1.5 w/v % or 4.5 w/v % without any of the saccharides were prepared and carried out in the same manner.
# [2] = mineral 1.5 w/v %, saccharide 1 w/v %
# [3] = mineral 4.5 w/v %, saccharide 1 w/v %
structure (smiles),measurement,setting,value
"OC[C@H]1O[C@H](O[C@H]2O[C@H](CO)[C@@H](O)[C@H](O)[C@H]2O)[C@H](O)[C@@H](O)[C@@H]1O [α,α-Trehalose, α,α-trehalose]",Germinated grains (Number),"unpolished rice; Experiment 7, mineral 1.5 w/v %, saccharide 0.01 w/v %, 48 hours",0
same,Germinated grains (Number),"unpolished rice; Experiment 7, mineral 1.5 w/v %, saccharide 0.01 w/v %, 72 hours",1
same,Germinated grains (Number),"unpolished rice; Experiment 7, mineral 1.5 w/v %, saccharide 0.01 w/v %, 96 hours",2
same,Germinated grains (Number),"unpolished rice; Experiment 7, mineral 1.5 w/v %, saccharide 0.01 w/v %, 120 hours",3
same,Germinated grains (Number),"unpolished rice; Experiment 7, mineral 1.5 w/v %, saccharide 0.1 w/v %, 48 hours",0
same,Germinated grains (Number),"unpolished rice; Experiment 7, mineral 1.5 w/v %, saccharide 0.1 w/v %, 72 hours",2
same,Germinated grains (Number),"unpolished rice; Experiment 7, mineral 1.5 w/v %, saccharide 0.1 w/v %, 96 hours",5
same,Germinated grains (Number),"unpolished rice; Experiment 7, mineral 1.5 w/v %, saccharide 0.1 w/v %, 120 hours",6
same,Germinated grains (Number),"unpolished rice; Experiment 7, mineral 1.5 w/v %, saccharide 1 w/v %, 48 hours",1
same,Germinated grains (Number),"unpolished rice; Experiment 7, mineral 1.5 w/v %, saccharide 1 w/v %, 72 hours",4
same,Germinated grains (Number),"unpolished rice; Experiment 7, mineral 1.5 w/v %, saccharide 1 w/v %, 96 hours",6
same,Germinated grains (Number),"unpolished rice; Experiment 7, mineral 1.5 w/v %, saccharide 1 w/v %, 120 hours",6
same,Germinated grains (Number),"unpolished rice; Experiment 7, mineral 1.5 w/v %, saccharide 2 w/v %, 48 hours",3
same,Germinated grains (Number),"unpolished rice; Experiment 7, mineral 1.5 w/v %, saccharide 2 w/v %, 72 hours",6
same,Germinated grains (Number),"unpolished rice; Experiment 7, mineral 1.5 w/v %, saccharide 2 w/v %, 96 hours",7
same,Germinated grains (Number),"unpolished rice; Experiment 7, mineral 1.5 w/v %, saccharide 2 w/v %, 120 hours",7
same,Germinated grains (Number),"unpolished rice; Experiment 7, mineral 1.5 w/v %, saccharide 3 w/v %, 48 hours",3
same,Germinated grains (Number),"unpolished rice; Experiment 7, mineral 1.5 w/v %, saccharide 3 w/v %, 72 hours",6
same,Germinated grains (Number),"unpolished rice; Experiment 7, mineral 1.5 w/v %, saccharide 3 w/v %, 96 hours",6
same,Germinated grains (Number),"unpolished rice; Experiment 7, mineral 1.5 w/v %, saccharide 3 w/v %, 120 hours",6
same,Germinated grains (Number),"unpolished rice; Experiment 7, mineral 1.5 w/v %, saccharide 4 w/v %, 48 hours",1
same,Germinated grains (Number),"unpolished rice; Experiment 7, mineral 1.5 w/v %, saccharide 4 w/v %, 72 hours",6
same,Germinated grains (Number),"unpolished rice; Experiment 7, mineral 1.5 w/v %, saccharide 4 w/v %, 96 hours",6
same,Germinated grains (Number),"unpolished rice; Experiment 7, mineral 1.5 w/v %, saccharide 4 w/v %, 120 hours",6
same,Germinated grains (Number),"unpolished rice; Experiment 7, mineral 1.5 w/v %, saccharide 6 w/v %, 48 hours",0
same,Germinated grains (Number),"unpolished rice; Experiment 7, mineral 1.5 w/v %, saccharide 6 w/v %, 72 hours",2
same,Germinated grains (Number),"unpolished rice; Experiment 7, mineral 1.5 w/v %, saccharide 6 w/v %, 96 hours",2
same,Germinated grains (Number),"unpolished rice; Experiment 7, mineral 1.5 w/v %, saccharide 6 w/v %, 120 hours",2
same,Germinated grains (Number),"unpolished rice; mineral 0.5 w/v %, saccharide 1 w/v %, 24 hours, 20 grains",0
same,Germinated grains (Number),"unpolished rice; mineral 0.5 w/v %, saccharide 1 w/v %, 48 hours, 20 grains",20
same,Germinated grains (Number),"unpolished rice; mineral 0.5 w/v %, saccharide 1 w/v %, 72 hours, 20 grains",20
same,Germinated grains (Number),"unpolished rice; mineral 0.5 w/v %, saccharide 1 w/v %, 96 hours, 20 grains",20
same,Germinated grains (Number),"unpolished rice; mineral 0.5 w/v %, saccharide 1 w/v %, 120 hours, 20 grains",20
same,Germinated grains (Number),"unpolished rice; mineral 1.0 w/v %, saccharide 1 w/v %, 24 hours, 20 grains",0
same,Germinated grains (Number),"unpolished rice; mineral 1.0 w/v %, saccharide 1 w/v %, 48 hours, 20 grains",17
same,Germinated grains (Number),"unpolished rice; mineral 1.0 w/v %, saccharide 1 w/v %, 72 hours, 20 grains",20
same,Germinated grains (Number),"unpolished rice; mineral 1.0 w/v %, saccharide 1 w/v %, 96 hours, 20 grains",20
same,Germinated grains (Number),"unpolished rice; mineral 1.0 w/v %, saccharide 1 w/v %, 120 hours, 20 grains",20
same,Germinated grains (Number),"unpolished rice; mineral 1.5 w/v %, saccharide 1 w/v %, 24 hours, 20 grains",0
same,Germinated grains (Number),"unpolished rice; mineral 1.5 w/v %, saccharide 1 w/v %, 48 hours, 20 grains",1
same,Germinated grains (Number),"unpolished rice; mineral 1.5 w/v %, saccharide 1 w/v %, 72 hours, 20 grains",4
same,Germinated grains (Number),"unpolished rice; mineral 1.5 w/v %, saccharide 1 w/v %, 96 hours, 20 grains",6
same,Germinated grains (Number),"unpolished rice; mineral 1.5 w/v %, saccharide 1 w/v %, 120 hours, 20 grains",6
same,Germinated grains (Number),"unpolished rice; mineral 2.0 w/v %, saccharide 1 w/v %, 24 hours, 20 grains",0
same,Germinated grains (Number),"unpolished rice; mineral 2.0 w/v %, saccharide 1 w/v %, 48 hours, 20 grains",0
same,Germinated grains (Number),"unpolished rice; mineral 2.0 w/v %, saccharide 1 w/v %, 72 hours, 20 grains",0
same,Germinated grains (Number),"unpolished rice; mineral 2.0 w/v %, saccharide 1 w/v %, 96 hours, 20 grains",0
same,Germinated grains (Number),"unpolished rice; mineral 2.0 w/v %, saccharide 1 w/v %, 120 hours, 20 grains",0
same,Judgment score of biological activity,"[1]; mineral 1.5 w/v %, saccharide 0.01 w/v %",19
same,Judgment score of biological activity,"[1]; mineral 1.5 w/v %, saccharide 0.1 w/v %",38
same,Judgment score of biological activity,[1]; [2],44
same,Judgment score of biological activity,"[1]; mineral 1.5 w/v %, saccharide 2 w/v %",47
same,Judgment score of biological activity,"[1]; mineral 1.5 w/v %, saccharide 3 w/v %",38
same,Judgment score of biological activity,"[1]; mineral 1.5 w/v %, saccharide 4 w/v %",21
same,Judgment score of biological activity,"[1]; mineral 4.5 w/v %, saccharide 0.01 w/v %",21
same,Judgment score of biological activity,"[1]; mineral 4.5 w/v %, saccharide 0.1 w/v %",35
same,Judgment score of biological activity,[1]; [3],50
same,Judgment score of biological activity,"[1]; mineral 4.5 w/v %, saccharide 2 w/v %",51
same,Judgment score of biological activity,"[1]; mineral 4.5 w/v %, saccharide 3 w/v %",31
same,Judgment score of biological activity,"[1]; mineral 4.5 w/v %, saccharide 4 w/v %",18
same,Judgment score for biological activity,"[1]; mineral 0 w/v %, saccharide 1 w/v %",12
same,Judgment score for biological activity,"[1]; mineral 0.5 w/v %, saccharide 1 w/v %",16
same,Judgment score for biological activity,"[1]; mineral 1.0 w/v %, saccharide 1 w/v %",38
same,Judgment score for biological activity,[1]; [2],44
same,Judgment score for biological activity,"[1]; mineral 2.0 w/v %, saccharide 1 w/v %",47
same,Judgment score for biological activity,"[1]; mineral 2.5 w/v %, saccharide 1 w/v %",51
same,Judgment score for biological activity,"[1]; mineral 3.0 w/v %, saccharide 1 w/v %",54
same,Judgment score for biological activity,"[1]; mineral 3.5 w/v %, saccharide 1 w/v %",50
same,Judgment score for biological activity,"[1]; mineral 4.0 w/v %, saccharide 1 w/v %",50
same,Judgment score for biological activity,[1]; [3],49
same,Judgment score for biological activity,"[1]; mineral 5.0 w/v %, saccharide 1 w/v %",34
same,Judgment score for biological activity,"[1]; mineral 5.5 w/v %, saccharide 1 w/v %",10
same,Judgment score for biological activity,"[1]; mineral 6.0 w/v %, saccharide 1 w/v %",5
